# Assay results published in ChEMBL document CHEMBL3259542, “Design, synthesis and pharmacological evaluation of novel polycyclic heteroarene ethers as PDE10A inhibitors: Part I” (Bioorg Med Chem Lett, 2014).
# pIC50: −log10 of the molar value.
# Assays:
# [1] = species on record: Homo sapiens; assay: Selectivity for human recombinant PDE10A over human recombinant PDE2A
# [2] = molecular target: cGMP-dependent 3',5'-cyclic phosphodiesterase (Homo sapiens) (UniProt O00408); assay: Inhibition of N-terminal GST-tagged human recombinant PDE2A assessed as substrate hydrolysis using cAMP as substrate at 1 uM after 30 mins by homogenous time-resolved fluorescence method
# [3] = molecular target: cGMP-dependent 3',5'-cyclic phosphodiesterase (Homo sapiens) (UniProt O00408); assay: Inhibition of N-terminal GST-tagged human recombinant PDE2A assessed as substrate hydrolysis using cAMP as substrate at 10 uM after 30 mins by homogenous time-resolved fluorescence method
# [4] = molecular target: High affinity cGMP-specific 3',5'-cyclic phosphodiesterase 9A (Homo sapiens) (UniProt O76083); assay: Inhibition of N-terminal GST-tagged human recombinant PDE9A assessed as substrate hydrolysis using [3H]cGMP as substrate at 1 uM after 30 mins by two-step radiometric assay
# [5] = molecular target: Dual 3',5'-cyclic-AMP and -GMP phosphodiesterase 11A (Homo sapiens) (UniProt Q9HCR9); assay: Inhibition of N-terminal GST-tagged human recombinant PDE11A assessed as substrate hydrolysis using [3H]cAMP as substrate at 1 uM after 30 mins by two-step radiometric assay
# [6] = molecular target: T1, cAMP and cAMP-inhibited cGMP 3',5'-cyclic phosphodiesterase 10A (Homo sapiens, UniProt Q9Y233); assay: Inhibition of N-terminal GST-tagged human recombinant PDE10A assessed as substrate hydrolysis using [3H]cAMP as substrate after 30 mins by two-step radiometric assay
# [7] = Metabolic stability in rat liver microsomes assessed as compound remaining at 1 uM after 60 mins; type: ADME; details: read-out: Stability
# [8] = molecular target: T1, cAMP and cAMP-inhibited cGMP 3',5'-cyclic phosphodiesterase 10A; assay: Inhibition of N-terminal GST-tagged human recombinant PDE10A assessed as substrate hydrolysis using [3H]cAMP as substrate at 1 uM after 30 mins by two-step radiometric assay
# [9] = molecular target: High affinity 3',5'-cyclic-AMP phosphodiesterase 7A (Homo sapiens) (UniProt Q13946); assay: Inhibition of N-terminal GST-tagged human recombinant PDE7A assessed as substrate hydrolysis using [3H]cAMP as substrate at 1 uM after 30 mins by two-step radiometric assay
# [10] = molecular target: cGMP-inhibited 3',5'-cyclic phosphodiesterase 3A (Homo sapiens) (UniProt Q14432); assay: Inhibition of N-terminal GST-tagged human recombinant PDE3A assessed as substrate hydrolysis using cAMP as substrate at 1 uM after 30 mins by homogenous time-resolved fluorescence method
# [11] = molecular target: cGMP-specific 3',5'-cyclic phosphodiesterase (Homo sapiens) (UniProt O76074); assay: Inhibition of N-terminal GST-tagged human recombinant PDE5A assessed as substrate hydrolysis using [3H]cGMP as substrate at 1 uM after 30 mins by two-step radiometric assay
# [12] = molecular target: Dual specificity calcium/calmodulin-dependent 3',5'-cyclic nucleotide phosphodiesterase 1A (Homo sapiens) (UniProt P54750); assay: Inhibition of N-terminal GST-tagged human recombinant PDE1A assessed as substrate hydrolysis using [3H]cAMP as substrate at 1 uM after 30 mins by two-step radiometric assay
# [13] = molecular target: 3',5'-cyclic-AMP phosphodiesterase 4D (Homo sapiens) (UniProt Q08499); assay: Inhibition of N-terminal GST-tagged human recombinant PDE4D assessed as substrate hydrolysis using [3H]cAMP as substrate at 1 uM after 30 mins by two-step radiometric assay
# [14] = Metabolic stability in human liver microsomes assessed as compound remaining at 1 uM after 60 mins; type: ADME; details: read-out: Stability
# [15] = molecular target: High affinity cAMP-specific and IBMX-insensitive 3',5'-cyclic phosphodiesterase 8A (Homo sapiens) (UniProt O60658); assay: Inhibition of N-terminal GST-tagged human recombinant PDE8A assessed as substrate hydrolysis using [3H]cAMP as substrate at 1 uM after 30 mins by two-step radiometric assay
# [16] = system: Liver microsome; assay: Drug level in rat liver microsomes treated with 9-Methyl-3-(2-{[3-(pyrimidin-5-yl)pyridin-2-yl]oxy}ethyl)-9H-pyrido[2,3-b]indole at 1 uM after 60 mins by LC-MS/MS analysis; type: ADME; details: 1 h
# [17] = Retention time of the compound by HPLC analysis; type: physicochemical
# [18] = system: Liver microsome; assay: Metabolic stability in rat liver microsomes assessed as metabolite M2 (9-methyl-3-(2-(3-(pyrimidin-5-yl)pyridin-2-yloxy)vinyl)-9H-pyrido[2,3-b]indole 9-oxide) formation at 1 uM after 60 mins by LC-MS/MS analysis; type: ADME; details: 1 h
# [19] = system: Liver microsome; assay: Metabolic stability in rat liver microsomes assessed as metabolite M3 (1-(9H-pyrido[2,3-b]indol-3-yl)-2-(3-(pyrimidin-5-yl)pyridin-2-yloxy)ethanol) formation at 1 uM after 60 mins by LC-MS/MS analysis; type: ADME; details: 1 h
# [20] = system: Liver microsome; assay: Metabolic stability in rat liver microsomes assessed as metabolite M4 (9-methyl-3-(2-(3-(pyrimidin-5-yl)pyridin-2-yloxy)vinyl)-9H-pyrido[2,3-b]indole 1-oxide) formation at 1 uM after 60 mins by LC-MS/MS analysis; type: ADME; details: 1 h
# [21] = system: Liver microsome; assay: Metabolic stability in rat liver microsomes assessed as metabolite M7 (9-methyl-3-(2-(3-(pyrimidin-5-yl)pyridin-2-yloxy)vinyl)-9H-pyrido[2,3-b]indole) formation at 1 uM after 60 mins by LC-MS/MS analysis; type: ADME; details: 1 h
# [22] = system: Liver microsome; assay: Metabolic stability in rat liver microsomes assessed as metabolite M8 (1-(9-methyl-9H-pyrido[2,3-b]indol-3-yl)-2-(3-(pyrimidin-5-yl)pyridin-2-yloxy)ethanol) formation at 1 uM after 60 mins by LC-MS/MS analysis; type: ADME; details: 1 h
# [23] = system: Liver microsome; assay: Metabolic stability in rat liver microsomes assessed as metabolite M5 (2-(2-(9-methyl-9H-pyrido[2,3-b]indol-3-yl)vinyloxy)-3-(pyrimidin-5-yl)pyridine 1-oxide) formation at 1 uM after 60 mins by LC-MS/MS analysis; type: ADME; details: 1 h
# [24] = system: Liver microsome; assay: Metabolic stability in rat liver microsomes assessed as metabolite M1 (3-(2-(3-(pyrimidin-5-yl)pyridin-2-yloxy)ethyl)-9H-pyrido[23-b]indole 1-oxide) formation at 1 uM after 60 mins by LC-MS/MS analysis; type: ADME; details: 1 h
# [25] = system: Liver microsome; assay: Metabolic stability in rat liver microsomes assessed as metabolite M6 (3-(2-(3-(pyrimidin-5-yl)pyridin-2-yloxy)ethyl)-9H-pyrido[2,3-b]indole) formation at 1 uM after 60 mins by LC-MS/MS analysis; type: ADME; details: 1 h
# [26] = system: Liver microsome; assay: Metabolic stability in rat liver microsomes assessed as metabolite M9 (9-methyl-3-(2-(3-(pyrimidin-5-yl)pyridin-2-yloxy)vinyl)-9H-pyrido[2,3-b]indole) formation at 1 uM after 60 mins by LC-MS/MS analysis; type: ADME; details: 1 h
# [27] = Drug uptake in Sprague-Dawley rat brain at 5 mg/kg, po after 1 hr; type: ADME, organism-based; parameters: dose 5 mg/kg, route oral; details: read-out: Drug uptake
# [28] = Cmax in Sprague-Dawley rat at 5 mg/kg, po; type: ADME, organism-based; parameters: dose 5 mg/kg, route oral; details: in vivo
# [29] = AUC (0 to t) in Sprague-Dawley rat at 5 mg/kg, po; type: ADME, organism-based; parameters: dose 5 mg/kg, route oral; details: plasma
# Sequence of Dual specificity calcium/calmodulin-dependent 3',5'-cyclic nucleotide phosphodiesterase 1A (Homo sapiens) (P54750 whole entry): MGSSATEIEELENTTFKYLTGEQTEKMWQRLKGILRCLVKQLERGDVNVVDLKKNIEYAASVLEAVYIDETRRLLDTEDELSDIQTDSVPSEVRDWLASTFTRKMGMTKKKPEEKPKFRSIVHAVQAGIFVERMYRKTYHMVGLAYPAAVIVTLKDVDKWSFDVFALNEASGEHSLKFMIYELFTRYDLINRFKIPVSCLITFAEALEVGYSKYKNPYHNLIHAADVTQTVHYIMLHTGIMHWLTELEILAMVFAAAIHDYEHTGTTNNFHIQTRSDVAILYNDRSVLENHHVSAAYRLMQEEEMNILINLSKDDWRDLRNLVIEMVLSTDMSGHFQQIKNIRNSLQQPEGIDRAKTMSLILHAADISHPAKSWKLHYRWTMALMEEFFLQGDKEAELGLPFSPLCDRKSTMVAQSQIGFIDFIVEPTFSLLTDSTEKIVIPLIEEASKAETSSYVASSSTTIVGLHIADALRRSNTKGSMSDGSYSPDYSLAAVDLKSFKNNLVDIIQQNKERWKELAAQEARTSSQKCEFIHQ
# Sequence of cGMP-inhibited 3',5'-cyclic phosphodiesterase 3A (Homo sapiens) (Q14432 whole entry): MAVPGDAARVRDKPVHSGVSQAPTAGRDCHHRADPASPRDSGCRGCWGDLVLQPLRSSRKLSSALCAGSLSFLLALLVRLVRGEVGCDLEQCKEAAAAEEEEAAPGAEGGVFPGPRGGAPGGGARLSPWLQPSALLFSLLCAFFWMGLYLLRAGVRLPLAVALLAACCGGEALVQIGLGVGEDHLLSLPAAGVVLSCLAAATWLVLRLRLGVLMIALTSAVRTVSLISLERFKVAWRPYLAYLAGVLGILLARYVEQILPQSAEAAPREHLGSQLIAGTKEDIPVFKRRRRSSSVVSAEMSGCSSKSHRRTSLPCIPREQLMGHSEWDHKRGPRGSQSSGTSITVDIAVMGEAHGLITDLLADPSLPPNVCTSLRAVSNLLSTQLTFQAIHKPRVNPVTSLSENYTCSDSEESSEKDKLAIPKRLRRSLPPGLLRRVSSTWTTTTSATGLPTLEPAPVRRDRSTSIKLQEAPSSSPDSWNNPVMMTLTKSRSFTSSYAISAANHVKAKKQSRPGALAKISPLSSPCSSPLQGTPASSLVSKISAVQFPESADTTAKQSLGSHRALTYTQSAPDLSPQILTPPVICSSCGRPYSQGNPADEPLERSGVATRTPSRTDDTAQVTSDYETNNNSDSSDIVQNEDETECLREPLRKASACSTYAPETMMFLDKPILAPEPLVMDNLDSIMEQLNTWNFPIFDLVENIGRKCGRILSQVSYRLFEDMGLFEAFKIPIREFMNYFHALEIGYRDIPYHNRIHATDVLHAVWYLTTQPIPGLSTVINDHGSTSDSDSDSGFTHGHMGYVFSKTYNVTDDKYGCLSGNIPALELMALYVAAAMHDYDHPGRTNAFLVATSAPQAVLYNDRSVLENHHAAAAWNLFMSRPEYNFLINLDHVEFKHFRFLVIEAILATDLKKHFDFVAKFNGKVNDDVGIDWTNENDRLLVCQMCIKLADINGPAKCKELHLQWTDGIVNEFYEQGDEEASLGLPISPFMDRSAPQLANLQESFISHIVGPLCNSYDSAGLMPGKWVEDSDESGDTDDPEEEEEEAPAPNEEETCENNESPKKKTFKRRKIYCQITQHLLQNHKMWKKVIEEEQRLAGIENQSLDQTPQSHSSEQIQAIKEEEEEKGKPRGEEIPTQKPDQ
# Sequence of Dual 3',5'-cyclic-AMP and -GMP phosphodiesterase 11A (Homo sapiens) (Q9HCR9 whole entry, looked up): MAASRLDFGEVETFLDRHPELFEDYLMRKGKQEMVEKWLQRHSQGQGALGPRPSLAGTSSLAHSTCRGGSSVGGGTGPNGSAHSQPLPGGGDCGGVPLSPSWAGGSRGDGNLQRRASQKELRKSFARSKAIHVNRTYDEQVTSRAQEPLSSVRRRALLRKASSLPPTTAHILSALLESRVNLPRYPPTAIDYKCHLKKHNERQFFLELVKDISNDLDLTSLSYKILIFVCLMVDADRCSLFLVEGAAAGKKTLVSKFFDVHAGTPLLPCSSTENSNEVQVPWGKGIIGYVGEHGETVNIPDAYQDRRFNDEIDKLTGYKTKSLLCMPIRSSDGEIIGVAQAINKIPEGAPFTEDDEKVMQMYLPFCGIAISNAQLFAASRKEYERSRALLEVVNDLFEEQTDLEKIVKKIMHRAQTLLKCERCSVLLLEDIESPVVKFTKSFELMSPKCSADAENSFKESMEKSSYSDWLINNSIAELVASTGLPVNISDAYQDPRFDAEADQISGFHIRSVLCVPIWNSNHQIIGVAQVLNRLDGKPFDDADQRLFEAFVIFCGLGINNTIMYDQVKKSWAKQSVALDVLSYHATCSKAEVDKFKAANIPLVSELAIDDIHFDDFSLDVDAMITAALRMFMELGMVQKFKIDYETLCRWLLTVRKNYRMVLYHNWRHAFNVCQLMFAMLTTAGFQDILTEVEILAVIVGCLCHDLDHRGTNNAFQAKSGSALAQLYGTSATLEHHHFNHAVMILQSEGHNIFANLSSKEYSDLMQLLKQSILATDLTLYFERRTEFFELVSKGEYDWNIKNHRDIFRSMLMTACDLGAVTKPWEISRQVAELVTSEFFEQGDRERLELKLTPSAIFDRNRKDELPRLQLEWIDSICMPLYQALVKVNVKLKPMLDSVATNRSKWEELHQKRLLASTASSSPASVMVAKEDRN
# Sequence of High affinity cAMP-specific and IBMX-insensitive 3',5'-cyclic phosphodiesterase 8A (Homo sapiens) (O60658 whole entry): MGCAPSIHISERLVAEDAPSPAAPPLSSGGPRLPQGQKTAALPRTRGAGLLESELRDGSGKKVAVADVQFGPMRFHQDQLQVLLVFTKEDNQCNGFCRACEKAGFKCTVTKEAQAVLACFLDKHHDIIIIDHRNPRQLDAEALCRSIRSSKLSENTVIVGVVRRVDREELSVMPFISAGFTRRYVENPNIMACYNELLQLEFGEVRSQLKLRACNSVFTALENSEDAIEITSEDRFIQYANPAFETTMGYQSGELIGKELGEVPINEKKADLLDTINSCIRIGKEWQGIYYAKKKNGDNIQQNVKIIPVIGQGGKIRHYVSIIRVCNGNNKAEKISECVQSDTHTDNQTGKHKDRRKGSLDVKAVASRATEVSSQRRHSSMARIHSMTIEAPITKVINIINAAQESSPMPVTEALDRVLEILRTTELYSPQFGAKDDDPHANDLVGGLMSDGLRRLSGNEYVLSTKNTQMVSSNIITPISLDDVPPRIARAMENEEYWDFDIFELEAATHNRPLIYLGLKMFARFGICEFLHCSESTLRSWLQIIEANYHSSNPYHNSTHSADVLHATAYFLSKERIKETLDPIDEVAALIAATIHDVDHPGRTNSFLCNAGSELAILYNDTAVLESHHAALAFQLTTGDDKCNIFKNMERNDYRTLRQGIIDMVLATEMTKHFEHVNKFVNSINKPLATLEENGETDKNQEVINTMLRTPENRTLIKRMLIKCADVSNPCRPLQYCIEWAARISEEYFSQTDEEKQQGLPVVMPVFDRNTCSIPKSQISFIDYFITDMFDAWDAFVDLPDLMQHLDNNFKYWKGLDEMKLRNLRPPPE
# Sequence of cGMP-dependent 3',5'-cyclic phosphodiesterase (Homo sapiens) (O00408 whole entry): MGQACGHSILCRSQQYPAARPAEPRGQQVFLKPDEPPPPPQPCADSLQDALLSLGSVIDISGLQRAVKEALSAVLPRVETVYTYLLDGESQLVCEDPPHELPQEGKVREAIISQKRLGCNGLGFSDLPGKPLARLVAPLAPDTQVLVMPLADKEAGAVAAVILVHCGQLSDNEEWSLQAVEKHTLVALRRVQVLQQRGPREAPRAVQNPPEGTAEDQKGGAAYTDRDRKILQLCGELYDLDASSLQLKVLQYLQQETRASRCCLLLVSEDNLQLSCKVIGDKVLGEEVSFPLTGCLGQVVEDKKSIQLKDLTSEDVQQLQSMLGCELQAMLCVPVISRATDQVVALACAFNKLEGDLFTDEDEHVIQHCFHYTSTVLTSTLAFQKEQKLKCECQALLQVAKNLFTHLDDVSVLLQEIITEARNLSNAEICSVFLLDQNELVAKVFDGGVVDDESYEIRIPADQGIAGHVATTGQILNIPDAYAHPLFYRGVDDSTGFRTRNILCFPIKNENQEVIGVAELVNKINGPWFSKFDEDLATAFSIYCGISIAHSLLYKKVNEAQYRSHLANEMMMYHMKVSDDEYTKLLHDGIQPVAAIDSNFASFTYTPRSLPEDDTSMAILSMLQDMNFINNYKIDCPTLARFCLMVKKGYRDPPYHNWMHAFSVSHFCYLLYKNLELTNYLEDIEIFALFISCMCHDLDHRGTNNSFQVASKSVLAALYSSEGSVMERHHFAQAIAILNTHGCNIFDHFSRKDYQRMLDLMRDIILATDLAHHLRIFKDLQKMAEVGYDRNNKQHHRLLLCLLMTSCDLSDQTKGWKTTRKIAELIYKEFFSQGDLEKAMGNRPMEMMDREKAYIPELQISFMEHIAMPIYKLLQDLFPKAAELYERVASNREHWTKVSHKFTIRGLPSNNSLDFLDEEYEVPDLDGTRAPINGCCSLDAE
# Sequence of High affinity 3',5'-cyclic-AMP phosphodiesterase 7A (Homo sapiens) (Q13946 whole entry): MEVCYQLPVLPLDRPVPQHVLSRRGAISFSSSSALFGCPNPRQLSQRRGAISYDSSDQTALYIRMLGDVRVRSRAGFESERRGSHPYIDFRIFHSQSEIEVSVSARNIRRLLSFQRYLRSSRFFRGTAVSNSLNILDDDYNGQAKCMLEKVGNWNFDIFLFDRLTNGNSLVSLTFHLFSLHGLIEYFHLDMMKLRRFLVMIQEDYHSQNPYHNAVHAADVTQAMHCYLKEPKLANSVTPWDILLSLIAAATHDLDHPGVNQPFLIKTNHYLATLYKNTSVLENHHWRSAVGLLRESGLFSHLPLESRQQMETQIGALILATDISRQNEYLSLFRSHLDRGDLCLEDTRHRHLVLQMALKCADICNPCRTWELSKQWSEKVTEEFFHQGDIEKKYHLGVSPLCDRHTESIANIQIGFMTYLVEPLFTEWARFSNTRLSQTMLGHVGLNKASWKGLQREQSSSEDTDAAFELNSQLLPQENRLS
compound,measurement,setting,value
Cn1c2ccccc2c2cc(CCOc3ncccc3-c3ccncc3)cnc21,Selectivity ratio,[1],100
same,inhibition,[2],41.4%
same,inhibition,[3],60%
same,inhibition,[4],1.3%
same,inhibition,[5],17.4%
same,pIC50,[6],7.98
same,"remaining at 1 h, 1 µM",[7],0.77%
same,inhibition,[8],95.8%
same,inhibition,[9],40.5%
same,inhibition,[10],0%
same,inhibition,[11],36.5%
same,inhibition,[12],40.9%
same,inhibition,[13],0.6%
same,"remaining at 1 h, 1 µM",[14],0.63%
same,inhibition,[15],11.2%
Cn1cc(COc2ncccc2-c2cncnc2)c2nc3ccccc3cc21,inhibition,[8],30.7%
FC(F)(F)Cn1cc(-c2ccncc2)c(-c2ccc(OCc3ccc4ccccc4n3)cc2)n1,pIC50,[6],8.85
Cn1c2ccccc2c2cc(CCOc3nccnc3-c3ccc(Cl)cc3)cnc21,pIC50,[6],6.73
same,inhibition,[8],87.2%
Cn1c2ccccc2c2cc(CCOc3ncccc3-c3ccc(F)cc3)cnc21,pIC50,[6],7.16
same,inhibition,[8],88.5%
Cn1c2ccccc2c2cc(C3(COc4ncccc4-c4cncnc4)CC3)cnc21,pIC50,[6],6.01
same,"remaining at 1 h, 1 µM",[7],17.5%
same,inhibition,[8],54.7%
same,"remaining at 1 h, 1 µM",[14],19.6%
C[N+]1([O-])c2ccccc2-c2cc(/C=C/Oc3ncccc3-c3cncnc3)cnc21 (centres undefined),Drug metabolism,[16],metabolite_detected
same,Retention_time,[17],8.64 min
Cn1cc(CCOc2nccnc2-c2cncnc2)c2nc3ccccc3cc21,pIC50,[6],6.91
same,"remaining at 1 h, 1 µM",[7],0.27%
same,inhibition,[8],82.1%
same,"remaining at 1 h, 1 µM",[14],0.11%
Cn1c2ccccc2c2cc(CCOc3ncccc3-c3ccc(Cl)cc3)cnc21,pIC50,[6],6.23
same,inhibition,[8],75.7%
Cn1c2ccccc2c2cc(COc3nccc(-c4ccc(F)cc4)n3)cnc21,inhibition,[8],23.9%
Cn1c2ccccc2c2cc(CCOc3ncccc3-c3cncnc3)cnc21,Drug metabolism,[18],metabolite_detected
same,Selectivity ratio,[1],100
same,inhibition,[2],67.2%
same,Drug metabolism,[19],metabolite_detected
same,Drug metabolism,[20],metabolite_detected
same,inhibition,[3],60%
same,Drug metabolism,[21],metabolite_detected
same,inhibition,[4],9.8%
same,inhibition,[5],12.4%
same,pIC50,[6],7.62
same,Drug metabolism,[22],metabolite_detected
same,"remaining at 1 h, 1 µM",[7],1.93%
same,inhibition,[8],92.5%
same,Drug metabolism,[23],metabolite_detected
same,Retention_time,[17],14.51 min
same,inhibition,[9],20.7%
same,inhibition,[10],0%
same,inhibition,[11],23.9%
same,Drug metabolism,[24],metabolite_detected
same,inhibition,[12],10.7%
same,Drug metabolism,[25],metabolite_detected
same,inhibition,[13],25.8%
same,"remaining at 1 h, 1 µM",[14],0.45%
same,inhibition,[15],0%
same,Drug metabolism,[26],metabolite_detected
Cn1c2ccccc2c2cc(COc3nccc(-c4cncnc4)n3)cnc21,inhibition,[8],23.6%
c1cnc(OCCc2cnc3[nH]c4ccccc4c3c2)c(-c2cncnc2)c1,Drug metabolism,[16],metabolite_detected
same,Retention_time,[17],10.86 min
Cn1c2ccccc2c2cc(/C=C/Oc3ncccc3-c3cncnc3)cnc21,Drug metabolism,[16],metabolite_detected
same,Retention_time,[17],11.81 min
Cn1c2ccccc2c2cc(/C=C/Oc3ncccc3-c3cncnc3)c[n+]([O-])c21,Drug metabolism,[16],metabolite_detected
same,Retention_time,[17],9.23 min
Cn1c2ccccc2c2cc(/C=C/Oc3c(-c4cncnc4)ccc[n+]3[O-])cnc21,Drug metabolism,[16],metabolite_detected
same,Retention_time,[17],9.69 min
Cn1c2ccccc2c2cc(CCCOc3ncccc3N3CCOCC3)cnc21,inhibition,[8],19.1%
Cn1c2ccccc2c2cc(CCOc3nccnc3-c3ccc(F)cc3)cnc21,Selectivity ratio,[1],100
same,inhibition,[2],11.9%
same,concentration at 1 h,[27],< 5.4 ng/mL
same,inhibition,[3],60%
same,inhibition,[4],1.6%
same,inhibition,[5],18.6%
same,pIC50,[6],7.38
same,Cmax,[28],103 ng/mL
same,"remaining at 1 h, 1 µM",[7],3.19%
same,AUC(0-t),[29],190 ng·h/mL
same,inhibition,[8],85.4%
same,inhibition,[9],18.3%
same,inhibition,[10],0.1%
same,inhibition,[11],5.9%
same,inhibition,[12],13.5%
same,inhibition,[13],0.7%
same,"remaining at 1 h, 1 µM",[14],9.92%
same,inhibition,[15],0%
Cn1c2ccccc2c2cc(/C=C\Oc3ncccc3-c3cncnc3)cnc21,Drug metabolism,[16],metabolite_detected
same,Retention_time,[17],10.86 min
FC(F)n1c2ccccc2c2cc(CCOc3ncccc3-c3cncnc3)cnc21,Selectivity ratio,[1],100
same,inhibition,[2],40.6%
same,inhibition,[3],60%
same,inhibition,[4],5.3%
same,inhibition,[5],15.8%
same,pIC50,[6],7.48
same,"remaining at 1 h, 1 µM",[7],41.2%
same,inhibition,[8],96.3%
same,inhibition,[9],20.8%
same,inhibition,[10],0.4%
same,inhibition,[11],16.7%
same,inhibition,[12],14%
same,inhibition,[13],3.8%
same,"remaining at 1 h, 1 µM",[14],51.1%
same,inhibition,[15],2.1%
OC(COc1ncccc1-c1cncnc1)c1cnc2[nH]c3ccccc3c2c1 (centres undefined),Drug metabolism,[16],metabolite_detected
same,Retention_time,[17],9.06 min
Cn1c2ccccc2c2cc(CCOc3nccnc3-c3cncnc3)cnc21,pIC50,[6],7.17
same,inhibition,[8],83.4%
Cn1cc(COc2nccc(-c3ccc(F)cc3)n2)c2nc3ccccc3cc21,inhibition,[8],12.1%
Cn1c2ccccc2c2cc(CCCOc3ncccc3-c3cncnc3)cnc21,pIC50,[6],5.49
same,inhibition,[8],43.1%
Cn1c2ccccc2c2cc(CCOc3nccnc3-c3ccncc3)cnc21,Selectivity ratio,[1],100
same,inhibition,[2],34.5%
same,inhibition,[3],60%
same,inhibition,[4],4.3%
same,inhibition,[5],21.7%
same,pIC50,[6],7.95
same,"remaining at 1 h, 1 µM",[7],1.03%
same,inhibition,[8],97.2%
same,inhibition,[9],27%
same,inhibition,[10],0.2%
same,inhibition,[11],13.6%
same,inhibition,[12],30.1%
same,inhibition,[13],11.9%
same,"remaining at 1 h, 1 µM",[14],0.72%
same,inhibition,[15],2%
Cn1c2ccccc2c2cc(CCCOc3ncccc3-c3cccnc3F)cnc21,pIC50,[6],5.23
same,inhibition,[8],48.9%
[O-][n+]1cc(CCOc2ncccc2-c2cncnc2)cc2c3ccccc3[nH]c21,Drug metabolism,[16],metabolite_detected
same,Retention_time,[17],6.78 min
Cn1c2ccccc2c2cc(COc3nccnc3-c3cncnc3)cnc21,inhibition,[8],10.9%
Cn1c2ccccc2c2cc(C(O)COc3ncccc3-c3cncnc3)cnc21 (centres undefined),Drug metabolism,[16],metabolite_detected
same,Retention_time,[17],11.55 min
Cn1cc(COc2ncccc2-c2ccncc2)c2nc3ccccc3cc21,inhibition,[8],24.6%
